Measurements taken from patent US10336761B2, “TGFβ receptor antagonist” (BRISTOL-MYERS SQUIBB COMPANY, priority 2015, dated 2019).

target: HIS-TGFβR1 T204D (Homo sapiens (Human), UniProt P36897, T204D); assay: HTRF probe-displacement assay, HIS-TGFβR1 T204D; assay type: binding; settings: 1 hour at room temperature
Sequence (P36897 34-503 T204D): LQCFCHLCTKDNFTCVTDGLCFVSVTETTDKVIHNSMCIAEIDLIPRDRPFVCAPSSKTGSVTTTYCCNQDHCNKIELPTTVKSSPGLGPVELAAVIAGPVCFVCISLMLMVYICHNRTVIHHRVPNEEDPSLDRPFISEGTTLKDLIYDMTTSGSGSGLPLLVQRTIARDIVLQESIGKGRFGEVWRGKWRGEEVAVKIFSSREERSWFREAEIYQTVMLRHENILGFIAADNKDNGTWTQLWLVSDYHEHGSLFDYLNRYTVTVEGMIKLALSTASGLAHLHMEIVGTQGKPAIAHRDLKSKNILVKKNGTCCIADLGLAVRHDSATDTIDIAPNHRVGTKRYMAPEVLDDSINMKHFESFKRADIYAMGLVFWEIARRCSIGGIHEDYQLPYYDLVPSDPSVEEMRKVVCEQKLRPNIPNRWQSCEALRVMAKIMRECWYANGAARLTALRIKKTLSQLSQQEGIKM

Point of comparison: `Cn1nccc1-c1nc(Nc2ccncc2F)c2cccn2n1` [Example 10, 3-fluoro-N-[2-(1-methyl-1H-pyrazol-5-yl)pyrrolo[2,1-f][1,2,4]triazin-4-yl]pyridin-4-amine], IC50 610 nM. Against it:
- CC(C)(O)CNCc1ccn2nc(-c3cccc(C(F)F)n3)nc(Nc3ccncc3F)c12 [Example 116, 1-[({2-[6-(difluoromethyl)pyridin-2-yl]-4-[(3-fluoropyridin-4-yl)amino]pyrrolo[2,1-f][1,2,4]triazin-5-yl}methyl)amino]-2-methylpropan-2-ol] — 270-fold lower, 2.3 nM
- CC(=O)Nc1nccc(Nc2nc(-c3cccc(C(F)(F)F)n3)nn3cccc23)c1F [Example 20, N-[3-fluoro-4-({2-[6-(trifluoromethyl)pyridin-2-yl]pyrrolo[2,1-f][1,2,4]triazin-4-yl}amino)pyridin-2-yl]acetamide] — 7.6-fold lower, 80 nM
- COc1cccc(-c2nc(Nc3ccncc3Cl)c3cccn3n2)n1 [Example 60, 3-chloro-N-[2-(6-methoxypyridin-2-yl)pyrrolo[2,1-f][1,2,4]triazin-4-yl]pyridin-4-amine] — 110-fold lower, 5.4 nM
- CC(=O)Nc1cc(Nc2nc(-c3cccc(F)n3)nn3cccc23)c(F)cn1 [Example 339, N-(5-fluoro-4-{[2-(6-fluoropyridin-2-yl)pyrrolo[2,1-f][1,2,4]triazin-4-yl]amino}pyridin-2-yl)acetamide] — 180-fold lower, 3.3 nM
- CCN(CC)CCNC(=O)c1cnccc1Nc1nc(-c2ccccn2)nn2cccc12 [Example 143, N-[2-(diethylamino)ethyl]-4-{[2-(pyridin-2-yl)pyrrolo[2,1-f][1,2,4]triazin-4-yl]amino}pyridine-3-carboxamide] — 32-fold lower, 19 nM
- O=C(NCCOCCO)c1cnccc1Nc1nc(-c2cccc(C(F)F)n2)nn2cccc12 [Example 174, 4-({2-[6-(difluoromethyl)pyridin-2-yl]pyrrolo[2,1-f][1,2,4]triazin-4-yl}amino)-N-[2-(2-hydroxyethoxy)ethyl]pyridine-3-carboxamide] — 27-fold lower, 23 nM
- CN(C)C1CCC(NCc2ccn3nc(-c4ccccn4)nc(Nc4ccncc4F)c23)CC1 (stereo not shown) [Example 245, 4-N-({4-[(3-fluoropyridin-4-yl)amino]-2-(pyridin-2-yl)pyrrolo[2,1-f][1,2,4]triazin-5-yl}methyl)-1-N, 1-N-dimethylcyclohexane-1,4-diamine] — 610-fold lower, 1 nM
- CCOC(=O)CCNC(=O)c1cnccc1Nc1nc(-c2cccc(C(F)F)n2)nn2cccc12 [Example 204, Ethyl 3-{[4-({2-[6-(difluoromethyl)pyridin-2-yl]pyrrolo[2,1-f][1,2,4]triazin-4-yl}amino)pyridin-3-yl]formamido}propanoate] — 12-fold lower, 53 nM
- O=C(CCC(F)(F)F)Nc1cc(Nc2nc(-c3cccc(C(F)(F)F)n3)nn3cccc23)ccn1 [Example 337, 4,4,4-trifluoro-N-[4-({2-[6-(trifluoromethyl)pyridin-2-yl]pyrrolo[2,1-f][1,2,4]triazin-4-yl}amino)pyridin-2-yl]butanamide] — 180-fold lower, 3.3 nM
- FC(F)(F)c1cccc(-c2nc(Nc3ccncn3)c3cccn3n2)n1 [Example 255, N-{2-[6-(trifluoromethyl)pyridin-2-yl]pyrrolo[2,1-f][1,2,4]triazin-4-yl}pyrimidin-4-amine] — 22-fold lower, 28 nM
- Fc1cnccc1Nc1nc(-c2cccc(C(F)F)n2)nn2ccc(CN3CCC(F)(F)CC3)c12 [Example 23, N-{2-[6-(difluoromethyl)pyridin-2-yl]-5-[(4,4-difluoropiperidin-1-yl)methyl]pyrrolo[2,1-f][1,2,4]triazin-4-yl}-3-fluoropyridin-4-amine] — 550-fold lower, 1.1 nM
- CC(C)(C)C(=O)Nc1cc(Nc2nc(-c3cccc(C(F)(F)F)n3)nn3cccc23)ccn1 [Example 342, 2,2-dimethyl-N-[4-({2-[6-(trifluoromethyl)pyridin-2-yl]pyrrolo[2,1-f][1,2,4]triazin-4-yl}amino)pyridin-2-yl]propanamide] — 3.8-fold lower, 160 nM
- CC1(NCc2ccn3nc(-c4ccccn4)nc(Nc4ccncc4F)c23)CCC1 [Example 241, 3-fluoro-N-(5-{[(1-methylcyclobutyl)amino]methyl}-2-(pyridin-2-yl)pyrrolo[2,1-f][1,2,4]triazin-4-yl)pyridin-4-amine] — 2300-fold lower, 0.27 nM
- Fc1ccc(-c2nc(Nc3ccncc3Cl)c3cccn3n2)nc1 [Example 4, 3-chloro-N-[2-(5-fluoropyridin-2-yl)pyrrolo[2,1-f][1,2,4]triazin-4-yl]pyridin-4-amine] — 1000-fold lower, 0.59 nM
- Cc1cccc(-c2nc(Nc3ccncc3)c3cc(C(=O)N(C)C)cn3n2)n1 [Example 218, N,N-dimethyl-2-(6-methylpyridin-2-yl)-4-[(pyridin-4-yl)amino]pyrrolo[2,1-f][1,2,4]triazine-6-carboxamide] — 4.7-fold lower, 130 nM
- C[C@@H](NCc1ccn2nc(-c3ccccn3)nc(Nc3ccncc3F)c12)C(C)(C)C [Example 300, N-[5-({[(2R)-3,3-dimethylbutan-2-yl]amino}methyl)-2-(pyridin-2-yl)pyrrolo[2,1-f][1,2,4]triazin-4-yl]-3-fluoropyridin-4-amine] — 180-fold lower, 3.3 nM
- CC(=O)Nc1cc(Nc2nc(-c3ccc(F)cn3)nn3cccc23)c(F)cn1 [Example 323, N-(5-fluoro-4-{[2-(5-fluoropyridin-2-yl)pyrrolo[2,1-f][1,2,4]triazin-4-yl]amino}pyridin-2-yl)acetamide] — 38-fold lower, 16 nM
- CN1CCN(Cc2ccn3nc(-c4cccc(C(F)F)n4)nc(Nc4ccncc4F)c23)CC1 [Example 115, N-{2-[6-(difluoromethyl)pyridin-2-yl]-5-[(4-methylpiperazin-1-yl)methyl]pyrrolo[2,1-f][1,2,4]triazin-4-yl}-3-fluoropyridin-4-amine] — 110-fold lower, 5.7 nM
- O=C(NCCO)c1cnccc1Nc1nc(-c2cccc(C(F)F)n2)nn2cccc12 [Example 192, 4-({2-[6-(difluoromethyl)pyridin-2-yl]pyrrolo[2,1-f][1,2,4]triazin-4-yl}amino)-N-(2-hydroxyethyl)pyridine-3-carboxamide] — 160-fold lower, 3.9 nM
- OC1(c2ccccc2)CCN(Cc2ccn3nc(-c4ccccn4)nc(Nc4ccncc4F)c23)CC1 [Example 277, 1-({4-[(3-fluoropyridin-4-yl)amino]-2-(pyridin-2-yl)pyrrolo[2,1-f][1,2,4]triazin-5-yl}methyl)-4-phenylpiperidin-4-ol] — 410-fold lower, 1.5 nM
- Fc1cnccc1Nc1nc(-c2ccc(C(F)(F)F)cn2)nn2cccc12 [Example 248, 3-fluoro-N-{2-[5-(trifluoromethyl)pyridin-2-yl]pyrrolo[2,1-f][1,2,4]triazin-4-yl}pyridin-4-amine] — 8.7-fold lower, 70 nM
- Fc1cnccc1Nc1nc(-c2ccccn2)nn2ccc(CN[C@H]3CCN(Cc4ccccc4)C3)c12 [Example 285, N-[5-({[(3S)-1-benzylpyrrolidin-3-yl]amino}methyl)-2-(pyridin-2-yl)pyrrolo[2,1-f][1,2,4]triazin-4-yl]-3-fluoropyridin-4-amine] — 510-fold lower, 1.2 nM
- COc1cccc(-c2nc(Nc3ccncc3F)c3c(CCN4CCN(C)CC4)ccn3n2)n1 [Example 112, 3-fluoro-N-[2-(6-methoxypyridin-2-yl)-5-[2-(4-methylpiperazin-1-yl)ethyl]pyrrolo[2,1-f][1,2,4]triazin-4-yl]pyridin-4-amine] — 1.7-fold lower, 360 nM
- Fc1cnccc1Nc1nc(-c2ccccn2)nn2ccc(CN3CCC(F)(F)CC3)c12 [Example 27, N-{5-[(4,4-difluoropiperidin-1-yl)methyl]-2-(pyridin-2-yl)pyrrolo[2,1-f][1,2,4]triazin-4-yl}-3-fluoropyridin-4-amine] — 470-fold lower, 1.3 nM
- Cc1nc(-c2nc(Nc3ccncc3)c3cccn3n2)ccc1F [Example 69, N-[2-(5-fluoro-6-methylpyridin-2-yl)pyrrolo[2,1-f][1,2,4]triazin-4-yl]pyridin-4-amine] — 320-fold lower, 1.9 nM
- Cc1nc(-c2nc(Nc3ccnc(NC(=O)C4CC4)c3)c3cccn3n2)ccc1F [Example 345, N-(4-{[2-(5-fluoro-6-methylpyridin-2-yl)pyrrolo[2,1-f][1,2,4]triazin-4-yl]amino}pyridin-2-yl)cyclopropanecarboxamide] — 440-fold lower, 1.4 nM
- O=C(N[C@H]1CCCC[C@@H]1O)c1cnccc1Nc1nc(-c2cccc(C(F)F)n2)nn2cccc12 [Example 175, 4-({2-[6-(difluoromethyl)pyridin-2-yl]pyrrolo[2,1-f][1,2,4]triazin-4-yl}amino)-N-[(1S,2S)-2-hydroxycyclohexyl]pyridine-3-carboxamide] — within 1.5-fold, 480 nM
- Cc1cccc(-c2nc(Nc3ccncc3C(=O)NCCN3CCS(=O)(=O)CC3)c3cccn3n2)n1 [Example 153, N-[2-(1,1-dioxo-1,4-thiomorpholin-4-yl)ethyl]-4-{[2-(6-methylpyridin-2-yl)pyrrolo[2,1-f][1,2,4]triazin-4-yl]amino}pyridine-3-carboxamide] — 28-fold lower, 22 nM
- CS(=O)(=O)Nc1cccc(-c2nc(Nc3ccncc3)c3cccn3n2)n1 [Example 8, N-(6-{4-[(pyridin-4-yl)amino]pyrrolo[2,1-f][1,2,4]triazin-2-yl}pyridin-2-yl)methanesulfonamide] — 51-fold lower, 12 nM
- O=C(c1cnccc1Nc1nc(-c2cccc(C(F)F)n2)nn2cccc12)N1CCCC1 [Example 186, N-{2-[6-(difluoromethyl)pyridin-2-yl]pyrrolo[2,1-f][1,2,4]triazin-4-yl}-3-(pyrrolidine-1-carbonyl)pyridin-4-amine] — 19-fold lower, 32 nM
- COc1cccc(-c2nc(Nc3ccncc3F)c3cc(NC(=O)CN)cn3n2)n1 [Example 109, 2-amino-N-{4-[(3-fluoropyridin-4-yl)amino]-2-(6-methoxypyridin-2-yl)pyrrolo[2,1-f][1,2,4]triazin-6-yl}acetamide] — 2.6-fold higher, 1600 nM
- O=C(NCc1cocn1)c1cnccc1Nc1nc(-c2cccc(C(F)F)n2)nn2cccc12 [Example 195, 4-({2-[6-(difluoromethyl)pyridin-2-yl]pyrrolo[2,1-f][1,2,4]triazin-4-yl}amino)-N-(1,3-oxazol-4-ylmethyl)pyridine-3-carboxamide] — 23-fold lower, 26 nM
- O=C(CN1CCNCC1)Nc1cc(Nc2nc(-c3cccc(C(F)(F)F)n3)nn3cccc23)ccn1 [Example 322, 2-(piperazin-1-yl)-N-[4-({2-[6-(trifluoromethyl)pyridin-2-yl]pyrrolo[2,1-f][1,2,4]triazin-4-yl}amino)pyridin-2-yl]acetamide] — 470-fold lower, 1.3 nM
